Results published in publication PMC3961306, “Comparison of the Cancer Gene Targeting and Biochemical Selectivities of All Targeted Kinase Inhibitors Approved for Clinical Use” (PLoS ONE, 2014).

Key:
Assay in all cases: Kinase profiling in a biochemical assay panel (mobility shift assays and ELISA), %-inhibition at 1 μM; selectivity entropy
[1] = target: panel of more than 300 wild-type and mutant kinases (313 kinase panel) (Homo sapiens, UniProt Q9P286)
[2] = target: panel of more than 300 wild-type and mutant kinases (313 kinase panel) (Homo sapiens, UniProt P36507); details: kinase MAP2K2; compound at 1 μM
[3] = target: panel of more than 300 wild-type and mutant kinases (313 kinase panel) (Homo sapiens, UniProt Q16816)
Sequence of panel of more than 300 wild-type and mutant kinases (313 kinase panel) (Homo sapiens, UniProt Q16816) (Q16816 whole entry, stated change not applied): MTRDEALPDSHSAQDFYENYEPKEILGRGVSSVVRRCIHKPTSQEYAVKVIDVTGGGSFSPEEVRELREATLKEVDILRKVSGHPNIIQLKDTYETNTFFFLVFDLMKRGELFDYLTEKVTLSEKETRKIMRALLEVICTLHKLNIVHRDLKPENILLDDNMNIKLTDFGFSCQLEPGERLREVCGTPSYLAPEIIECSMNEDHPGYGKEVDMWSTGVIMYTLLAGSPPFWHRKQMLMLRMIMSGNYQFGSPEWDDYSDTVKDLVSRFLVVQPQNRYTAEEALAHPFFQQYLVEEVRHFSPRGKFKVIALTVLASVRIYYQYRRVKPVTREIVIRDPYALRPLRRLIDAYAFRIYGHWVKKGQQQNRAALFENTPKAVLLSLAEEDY

[4] = target: panel of more than 300 wild-type and mutant kinases (313 kinase panel) (Homo sapiens, UniProt P22607, K650E); details: kinase FGFR3(K650E); compound at 1 μM
Sequence of panel of more than 300 wild-type and mutant kinases (313 kinase panel) (Homo sapiens, UniProt P22607, K650E) (P22607 23-806 K650E): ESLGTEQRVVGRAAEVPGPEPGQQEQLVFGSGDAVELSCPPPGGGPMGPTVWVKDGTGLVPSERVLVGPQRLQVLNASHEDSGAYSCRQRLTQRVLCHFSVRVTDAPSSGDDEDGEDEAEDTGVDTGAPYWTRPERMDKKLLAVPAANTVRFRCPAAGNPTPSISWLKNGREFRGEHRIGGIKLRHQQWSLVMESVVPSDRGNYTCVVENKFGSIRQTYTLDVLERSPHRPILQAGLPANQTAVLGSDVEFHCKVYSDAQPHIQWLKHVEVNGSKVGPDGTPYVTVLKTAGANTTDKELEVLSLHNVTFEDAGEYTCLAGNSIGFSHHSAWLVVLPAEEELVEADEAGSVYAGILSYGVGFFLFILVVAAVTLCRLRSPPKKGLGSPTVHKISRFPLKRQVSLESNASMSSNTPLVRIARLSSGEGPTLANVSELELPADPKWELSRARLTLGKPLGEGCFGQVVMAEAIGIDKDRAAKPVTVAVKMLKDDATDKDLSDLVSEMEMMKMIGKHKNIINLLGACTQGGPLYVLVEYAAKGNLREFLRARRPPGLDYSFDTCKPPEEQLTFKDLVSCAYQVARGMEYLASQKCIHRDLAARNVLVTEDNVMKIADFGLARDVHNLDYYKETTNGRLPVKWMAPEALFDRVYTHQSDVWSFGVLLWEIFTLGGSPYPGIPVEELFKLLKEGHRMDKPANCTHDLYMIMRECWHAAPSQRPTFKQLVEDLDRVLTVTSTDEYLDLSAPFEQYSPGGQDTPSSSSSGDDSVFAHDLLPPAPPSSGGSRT

[5] = target: panel of more than 300 wild-type and mutant kinases (313 kinase panel) (Homo sapiens, UniProt O94804)
Sequence of panel of more than 300 wild-type and mutant kinases (313 kinase panel) (Homo sapiens, UniProt O94804) (O94804 whole entry, change not shown): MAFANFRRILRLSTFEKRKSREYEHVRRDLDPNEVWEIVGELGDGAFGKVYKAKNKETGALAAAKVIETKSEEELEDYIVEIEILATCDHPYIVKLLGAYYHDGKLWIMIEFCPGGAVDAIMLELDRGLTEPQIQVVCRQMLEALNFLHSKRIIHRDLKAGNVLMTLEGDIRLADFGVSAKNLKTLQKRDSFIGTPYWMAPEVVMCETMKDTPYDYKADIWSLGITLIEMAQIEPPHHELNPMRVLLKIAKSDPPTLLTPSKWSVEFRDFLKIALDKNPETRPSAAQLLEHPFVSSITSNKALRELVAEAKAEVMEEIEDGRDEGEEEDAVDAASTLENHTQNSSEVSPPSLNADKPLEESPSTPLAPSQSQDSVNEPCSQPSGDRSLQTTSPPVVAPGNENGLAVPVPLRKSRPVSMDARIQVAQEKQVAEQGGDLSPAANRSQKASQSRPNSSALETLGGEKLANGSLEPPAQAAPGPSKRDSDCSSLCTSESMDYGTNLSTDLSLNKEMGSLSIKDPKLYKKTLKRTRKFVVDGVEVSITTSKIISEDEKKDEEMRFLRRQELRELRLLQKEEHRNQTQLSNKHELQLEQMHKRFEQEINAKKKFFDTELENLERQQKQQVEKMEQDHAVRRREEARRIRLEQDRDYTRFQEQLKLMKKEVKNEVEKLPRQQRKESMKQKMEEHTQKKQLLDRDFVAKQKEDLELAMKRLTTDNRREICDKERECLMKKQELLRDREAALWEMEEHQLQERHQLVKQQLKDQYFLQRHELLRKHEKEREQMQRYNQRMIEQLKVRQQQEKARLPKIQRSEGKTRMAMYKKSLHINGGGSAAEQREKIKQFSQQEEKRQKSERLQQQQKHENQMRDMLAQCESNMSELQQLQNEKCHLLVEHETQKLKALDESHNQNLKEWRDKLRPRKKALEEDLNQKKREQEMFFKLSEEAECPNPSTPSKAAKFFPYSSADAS

[6] = target: panel of more than 300 wild-type and mutant kinases (313 kinase panel) (Homo sapiens, UniProt Q13177)
[7] = target: T1, panel of more than 300 wild-type and mutant kinases (313 kinase panel) (Homo sapiens, UniProt P36888)
T1 sequence (P36888 27-993): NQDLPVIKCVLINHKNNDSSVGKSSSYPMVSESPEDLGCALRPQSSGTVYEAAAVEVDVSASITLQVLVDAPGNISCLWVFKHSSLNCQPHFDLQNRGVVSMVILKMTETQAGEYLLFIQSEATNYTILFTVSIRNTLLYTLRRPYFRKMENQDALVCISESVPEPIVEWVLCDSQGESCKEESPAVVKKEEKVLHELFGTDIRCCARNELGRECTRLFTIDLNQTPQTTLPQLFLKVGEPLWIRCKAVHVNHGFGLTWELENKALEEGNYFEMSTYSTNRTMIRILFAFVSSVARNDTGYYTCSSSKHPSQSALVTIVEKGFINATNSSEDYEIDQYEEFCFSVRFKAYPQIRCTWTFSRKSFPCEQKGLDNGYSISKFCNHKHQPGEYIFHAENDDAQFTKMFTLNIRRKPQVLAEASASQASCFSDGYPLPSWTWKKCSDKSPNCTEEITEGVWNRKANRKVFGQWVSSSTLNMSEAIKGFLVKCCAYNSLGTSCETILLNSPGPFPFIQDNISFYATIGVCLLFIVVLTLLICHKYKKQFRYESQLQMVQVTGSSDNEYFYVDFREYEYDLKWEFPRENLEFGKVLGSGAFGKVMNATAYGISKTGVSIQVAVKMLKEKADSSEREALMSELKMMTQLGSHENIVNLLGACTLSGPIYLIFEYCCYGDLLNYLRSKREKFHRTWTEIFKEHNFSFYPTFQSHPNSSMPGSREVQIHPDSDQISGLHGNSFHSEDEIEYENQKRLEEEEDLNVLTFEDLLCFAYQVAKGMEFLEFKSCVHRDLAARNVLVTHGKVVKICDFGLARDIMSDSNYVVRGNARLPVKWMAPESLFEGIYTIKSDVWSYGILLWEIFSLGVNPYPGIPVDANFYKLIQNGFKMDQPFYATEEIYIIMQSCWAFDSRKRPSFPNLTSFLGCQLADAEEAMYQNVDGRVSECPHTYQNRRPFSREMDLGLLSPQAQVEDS

[8] = target: T2, panel of more than 300 wild-type and mutant kinases (313 kinase panel) (Homo sapiens, UniProt Q99759)
T2 sequence (Q99759 1-626): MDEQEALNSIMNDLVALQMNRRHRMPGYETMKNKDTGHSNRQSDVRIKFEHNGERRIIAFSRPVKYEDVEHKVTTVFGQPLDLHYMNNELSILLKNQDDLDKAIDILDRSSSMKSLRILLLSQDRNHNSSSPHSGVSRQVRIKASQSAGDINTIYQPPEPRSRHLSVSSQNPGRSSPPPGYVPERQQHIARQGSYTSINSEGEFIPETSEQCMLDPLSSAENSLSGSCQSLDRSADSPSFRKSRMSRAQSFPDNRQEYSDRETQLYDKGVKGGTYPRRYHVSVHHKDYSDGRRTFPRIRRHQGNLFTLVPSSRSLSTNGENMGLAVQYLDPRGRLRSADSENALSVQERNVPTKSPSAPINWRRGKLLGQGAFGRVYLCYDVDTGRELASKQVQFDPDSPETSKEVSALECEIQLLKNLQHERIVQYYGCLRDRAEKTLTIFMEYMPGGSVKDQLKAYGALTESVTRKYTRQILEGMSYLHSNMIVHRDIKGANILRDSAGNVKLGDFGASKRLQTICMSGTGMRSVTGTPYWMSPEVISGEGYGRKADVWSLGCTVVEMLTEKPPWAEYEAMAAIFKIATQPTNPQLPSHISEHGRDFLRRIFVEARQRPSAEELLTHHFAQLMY

[9] = target: panel of more than 300 wild-type and mutant kinases (313 kinase panel) (Homo sapiens, UniProt Q9H1R3); details: kinase skMLCK; 1 μM
[10] = target: panel of more than 300 wild-type and mutant kinases (313 kinase panel) (Homo sapiens, UniProt P41240)
Sequence of panel of more than 300 wild-type and mutant kinases (313 kinase panel) (Homo sapiens, UniProt P41240) (P41240 whole entry, change not shown): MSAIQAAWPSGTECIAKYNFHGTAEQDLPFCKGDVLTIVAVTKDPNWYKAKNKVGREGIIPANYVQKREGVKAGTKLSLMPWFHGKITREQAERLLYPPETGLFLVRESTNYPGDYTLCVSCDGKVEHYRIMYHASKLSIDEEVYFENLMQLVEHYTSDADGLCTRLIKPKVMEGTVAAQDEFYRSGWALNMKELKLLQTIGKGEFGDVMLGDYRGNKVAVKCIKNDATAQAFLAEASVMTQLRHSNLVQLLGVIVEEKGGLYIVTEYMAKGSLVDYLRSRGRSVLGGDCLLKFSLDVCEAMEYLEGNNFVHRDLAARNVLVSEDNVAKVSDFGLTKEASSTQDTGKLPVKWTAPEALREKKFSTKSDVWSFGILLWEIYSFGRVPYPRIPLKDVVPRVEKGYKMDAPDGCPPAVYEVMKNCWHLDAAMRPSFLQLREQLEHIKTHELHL

[11] = kinase MAP3K3, compound at 1 μM

Sequence of panel of more than 300 wild-type and mutant kinases (313 kinase panel) (Homo sapiens, UniProt Q9P286) (Q9P286 whole entry, change not shown): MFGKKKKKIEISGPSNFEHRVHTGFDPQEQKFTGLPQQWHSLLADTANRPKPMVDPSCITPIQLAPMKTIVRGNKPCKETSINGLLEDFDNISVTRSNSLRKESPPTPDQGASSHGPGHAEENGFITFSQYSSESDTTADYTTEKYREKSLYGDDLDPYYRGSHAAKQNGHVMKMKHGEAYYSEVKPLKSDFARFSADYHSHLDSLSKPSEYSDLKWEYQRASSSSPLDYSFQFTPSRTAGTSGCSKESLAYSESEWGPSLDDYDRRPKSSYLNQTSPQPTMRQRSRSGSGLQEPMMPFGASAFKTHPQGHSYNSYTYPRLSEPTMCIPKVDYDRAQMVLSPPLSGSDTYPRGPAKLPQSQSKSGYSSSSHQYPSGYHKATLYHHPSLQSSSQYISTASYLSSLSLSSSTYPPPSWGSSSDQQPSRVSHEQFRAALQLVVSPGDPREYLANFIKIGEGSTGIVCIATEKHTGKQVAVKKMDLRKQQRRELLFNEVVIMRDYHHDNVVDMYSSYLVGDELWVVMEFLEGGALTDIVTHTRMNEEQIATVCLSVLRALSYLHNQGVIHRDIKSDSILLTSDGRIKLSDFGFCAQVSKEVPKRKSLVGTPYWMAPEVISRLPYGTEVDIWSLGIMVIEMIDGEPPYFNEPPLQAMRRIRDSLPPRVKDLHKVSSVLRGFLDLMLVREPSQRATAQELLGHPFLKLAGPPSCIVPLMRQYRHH

| Compound | %-inhibition of PAK5 ([1]; kinase PAK5, 1 μM) [%] | %-inhibition of MAP2K2 [2] [%] | %-inhibition of PHKG1 ([3]; kinase PHKG1, 1 μM) [%] | %-inhibition of FGFR3(K650E) [4] [%] | %-inhibition of LOK ([5]; kinase LOK, compound at 1 μM) [%] | %-inhibition of PAK2 ([6]; kinase PAK2, 1 μM) [%] | %-inhibition of FLT3 ([7]; kinase FLT3, compound at 1 μM) [%] | %-inhibition of MAP3K3 [8, 11] [%] | %-inhibition of skMLCK [9] [%] | %-inhibition of CSK ([10]; kinase CSK, compound at 1 μM) [%] | %-inhibition of PAK5 ([1]; 1 µM) [%] | %-inhibition of MAP3K3 ([8]; 1 µM) [%] | %-inhibition of CSK ([10]; 1 µM) [%] | %-inhibition of LOK ([5]; 1 µM) [%] | %-inhibition of PAK2 ([6]; 1 µM) [%] | %-inhibition of FLT3 ([7]; 1 µM) [%] | %-inhibition of PHKG1 ([3]; 1 µM) [%] |
| --- | --- | --- | --- | --- | --- | --- | --- | --- | --- | --- | --- | --- | --- | --- | --- | --- | --- |
| O=S(=O)(c1cccc2cnccc12)N1CCCNCC1 [fasudil] | -6.61 | 13 | 2.6 | -0.641 | 11 | -16 | 22 | -14 | -1.56 | -3.28 |  |  |  |  |  |  |  |
| CS(=O)(=O)CCNCc1ccc(-c2ccc3ncnc(Nc4ccc(OCc5cccc(F)c5)c(Cl)c4)c3c2)o1 [lapatinib] |  | 6 | 4.72 | 0.415 | 17 | 7 | -3.74 |  | 2.11 |  | -0.566 | 4.75 | 1.88 |  |  |  |  |
| Cc1cn(-c2cc(NC(=O)c3ccc(C)c(Nc4nccc(-c5cccnc5)n4)c3)cc(C(F)(F)F)c2)cn1 [nilotinib] | 3.39 | -12 | -8 | -37 |  |  |  |  | -14 |  |  | -21 | 78 | -18 | -40 | 60 |  |
| CNC(=O)c1cc(Oc2ccc(NC(=O)Nc3ccc(Cl)c(C(F)(F)F)c3)c(F)c2)ccn1 [regorafenib] | -8 | 16 | 8 | 99 | 80 | -1.3 | 68 | 9 | 6.59 | 28 |  |  |  |  |  |  |  |
| N#CC[C@H](C1CCCC1)n1cc(-c2ncnc3[nH]ccc23)cn1 [ruxolitinib] | 14 | 12 |  | 16 | 3.51 | 3.37 |  | 36 | -4.71 | -0.827 |  |  |  |  |  | 18 | 50 |
| CO[C@H]1C[C@@H]2CC[C@@H](C)[C@@](O)(O2)C(=O)C(=O)N2CCCC[C@H]2C(=O)O[C@H]([C@H](C)C[C@@H]2CC[C@@H](OC(=O)C(C)(CO)CO)[C@H](OC)C2)CC(=O)[C@H](C)/C=C(\C)[C@@H](O)[C@@H](OC)C(=O)[C@H](C)C[C@H](C)/C=C/C=C/C=C/1C [temsirolimus] | -6 | 13 | 1.57 | -2.55 | -5 | -1.81 | 5 | 10 | -1.73 | -1.56 |  |  |  |  |  |  |  |
| CCCS(=O)(=O)Nc1ccc(F)c(C(=O)c2c[nH]c3ncc(-c4ccc(Cl)cc4)cc23)c1F [vemurafenib] | -1.23 | 30 | -0.913 | 6.55 | -1 | 13 | 10 | 8 | 53 | 76 |  |  |  |  |  |  |  |
